Experimental findings from patent publication US20230357179A1, “RAF KINASE INHIBITORS AND METHODS OF USE THEREOF” (Deciphera Pharmaceuticals, LLC, priority 2021, published 2023) are described below.

One assay concerns the target T1, A-Raf kinase (Homo sapiens, UniProt P10398, Y301D/Y302D).
T1 construct: purchased Sigma
As to the kind of experiment: Biochemical assay for A-Raf.1 (coupled pyruvate kinase/lactate dehydrogenase). Particulars: read-out: ARAF.1 IC50. In short, it runs like this:
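IC50 values came from four-parameter sigmoidal fits of percent inhibition, using rates over the 4 to 5 h window of continuous A340 readings (6 h, 30° C). The coupled PK/LDH system tracked NADH oxidation during 5.55 nM A-Raf activity on 30.1 nM MEK at 1 mM ATP, buffer pH 7.5.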

In a further assay the target is T2, B-Raf kinase (Homo sapiens, UniProt P15056).
T2 construct: GST (N); purchased Sigma
T2 sequence (P15056 416-766): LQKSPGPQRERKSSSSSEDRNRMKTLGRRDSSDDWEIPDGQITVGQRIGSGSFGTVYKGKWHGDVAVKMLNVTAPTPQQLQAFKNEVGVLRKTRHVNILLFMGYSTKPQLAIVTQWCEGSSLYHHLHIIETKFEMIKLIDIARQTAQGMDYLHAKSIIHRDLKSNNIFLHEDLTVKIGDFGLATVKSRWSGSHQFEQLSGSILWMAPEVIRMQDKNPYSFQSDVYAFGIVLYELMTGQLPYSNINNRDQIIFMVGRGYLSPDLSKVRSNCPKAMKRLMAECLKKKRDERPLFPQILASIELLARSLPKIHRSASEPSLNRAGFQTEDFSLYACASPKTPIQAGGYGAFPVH
Description: Biochemical assay for B-Raf.1 (coupled pyruvate kinase/lactate dehydrogenase). To be noted: read-out: BRAF.1 IC50. In short, it runs like this:
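Reaction rates over the 4–5 h window of a continuous 6 h, 30 °C read were converted to percent inhibition and fitted for IC50. B-Raf (0.13 nM) phosphorylated 30.1 nM MEK with 1 mM ATP; ADP coupled via PK/LDH to NADH loss at 340 nm, 1% DMSO final.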

The next assay has as its system H2405 cells. As to the kind of experiment: H2405 cell proliferation assay (1), resazurin, 96-well. Type of assay: cell-based. To be noted: Homo sapiens, NCI-H2405, inhibition of cell proliferation. In short, it runs like this: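 This is a resazurin viability readout (excitation 540 nm, emission 600 nm) taken 5-6 h after adding 440 μM resazurin solution, giving IC50 values.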
(Resazurin is reduced to fluorescent resorufin, in cell work by metabolically active cells.)

T1 sequence (P10398 with tags, fused parts or gaps Y301D/Y302D): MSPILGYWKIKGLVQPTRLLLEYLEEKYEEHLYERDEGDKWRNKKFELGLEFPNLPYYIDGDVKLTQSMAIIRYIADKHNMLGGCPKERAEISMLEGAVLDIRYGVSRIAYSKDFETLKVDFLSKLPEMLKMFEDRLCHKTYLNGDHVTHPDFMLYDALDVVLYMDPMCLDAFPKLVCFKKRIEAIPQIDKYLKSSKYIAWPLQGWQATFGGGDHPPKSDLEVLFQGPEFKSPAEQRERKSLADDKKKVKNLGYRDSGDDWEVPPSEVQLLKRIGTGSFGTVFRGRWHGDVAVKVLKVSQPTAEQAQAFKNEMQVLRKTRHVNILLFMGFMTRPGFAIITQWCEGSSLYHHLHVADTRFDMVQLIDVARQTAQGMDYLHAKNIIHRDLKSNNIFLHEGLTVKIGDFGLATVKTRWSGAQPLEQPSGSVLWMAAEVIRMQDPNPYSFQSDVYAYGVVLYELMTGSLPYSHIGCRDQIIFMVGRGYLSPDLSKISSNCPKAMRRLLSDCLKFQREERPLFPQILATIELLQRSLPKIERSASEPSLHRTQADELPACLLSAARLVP

As usually defined, the IC50 is the concentration that gives 50% inhibition. As to `CNC(=O)c1cc(-c2cccc(-c3cc(NC(=O)NCCC(C)(C)OC)c(F)cc3C)c2)ccn1` [Example 72], the IC50 is more than 1000 nM on A-Raf kinase and 100 to 500 nM on B-Raf kinase.

Turning to `COC(C)(C)CCNC(=O)Nc1cc(-c2cccc(-c3ccnc(NC(C)=O)c3)c2)c(C)cc1F` [Example 71], the figures for the IC50 at A-Raf kinase and at B-Raf kinase were 100 to 500 nM and not above 100 nM, respectively.

`COC(=O)Nc1cc(-c2nc(OCCO)cc(-c3cc(NC(=O)NC4CC(C)(C)C4)cnc3C)n2)ccn1` [Example 174]: the IC50 on A-Raf kinase is more than 1000 nM; on B-Raf kinase, 100 to 500 nM; in the assay with H2405 cells it was 500 to 1000 nM.

Consider `CC(=O)Nc1cc(-c2cc(-c3cc(NC(=O)NCCC4(C)CC4)c(F)cc3C)cc(NCCO)n2)ccn1` [Example 175], for which the IC50 on A-Raf kinase is 100 to 500 nM; on B-Raf kinase, not above 100 nM; in the assay with H2405 cells, not above 100 nM.

For the compound `CNC(=O)c1cc(-c2cnnc(-c3cc(NC(=O)N4CCC5(CC5)C4)ccc3C)c2)ccn1` [Example 178], the IC50 on A-Raf kinase is more than 1000 nM; at B-Raf kinase, more than 1000 nM; in the assay on H2405 cells, 1000 to 10000 nM.

Regarding `Cc1ccc(NC(=O)Nc2cnc(C(F)(F)F)s2)cc1-c1cc(OCCO)nc(N2CCOCC2)c1` [Example 43], the half-inhibitory concentration (IC50) is more than 1000 nM at A-Raf kinase, 100 to 500 nM on B-Raf kinase and 100 to 500 nM with H2405 cells.

Consider `COC(=O)Nc1cc(-c2cc(-c3cc(NC(=O)NCCC4(C)CC4)c(F)cc3F)cc(OCCO)n2)ccn1` [Example 188], for which the concentration for half-maximal inhibition (IC50) at A-Raf kinase is more than 1000 nM; on B-Raf kinase, not above 100 nM; in the assay with H2405 cells, 500 to 1000 nM.

`COC[C@@H]1CCN(C(=O)Nc2cnc(C)c(-c3ccnc(-c4ccnc(NC(=O)OC)c4)c3)c2)C1` [Example 179]: the IC50 was more than 1000 nM at A-Raf kinase, more than 1000 nM on B-Raf kinase and 1000 to 10000 nM in the assay on H2405 cells.

With `COC(C)(C)CCNC(=O)Nc1ccc(C)c(-c2cc(-c3ccnc(NC(C)=O)c3)n(C)c(=O)c2)c1` [Example 60], the IC50 on A-Raf kinase and on B-Raf kinase was more than 1000 nM throughout.

With `COC[C@H]1CCN(C(=O)Nc2cnc(C)c(-c3ccnc(-c4ccnc(NC(=O)OC)c4)c3)c2)C1` [Example 176], the IC50 was more than 1000 nM at A-Raf kinase, more than 1000 nM on B-Raf kinase and 1000 to 10000 nM in the assay on H2405 cells.

For `CC(=O)Nc1cc(-c2cc(-c3cc(NC(=O)NCC45CC(F)(C4)C5)c(F)cc3C)cc(OCCO)n2)ccn1` [Example 52], the results for the IC50 at A-Raf kinase and at B-Raf kinase were more than 1000 nM and not above 100 nM, respectively.

Turning to `CNC(=O)c1cc(-c2cnnc(-c3cc(NC(=O)N4CC[C@H](OC)C4)ccc3C)c2)ccn1` [Example 177], the IC50 on A-Raf kinase is more than 1000 nM; on B-Raf kinase it was more than 1000 nM; with H2405 cells it was 1000 to 10000 nM.

Take `COC(=O)Nc1cc(-c2cnnc(-c3cc(NC(=O)N4CCC(C(C)(C)C)C4)ccc3C)c2)ccn1` (centres unmarked) [Example 185]: the IC50 was more than 1000 nM at A-Raf kinase, 100 to 500 nM at B-Raf kinase and 100 to 500 nM with H2405 cells.

On to `COC(=O)Nc1cc(-c2cc(-c3cc(NC(=O)NCCC4(C)CC4)ccc3F)cc(OCCO)n2)ccn1` [Example 187], for which the half-inhibitory concentration (IC50) at A-Raf kinase is more than 1000 nM; on B-Raf kinase, not above 100 nM; with H2405 cells it was 1000 to 10000 nM.

For `CC(=O)Nc1cc(-c2cc(-c3cc(NC(=O)NC4CC(C)(C)C4)c(F)cc3C)cc(OCCO)n2)ccn1` [Example 47], the concentration for half-maximal inhibition (IC50) was 100 to 500 nM at A-Raf kinase and not above 100 nM on B-Raf kinase.

Consider `Cc1cc(F)c(NC(=O)NCCC2(C(F)(F)F)CC2)cc1-c1cc(OCCO)nc(C2CCOCC2)c1` [Example 24], for which the IC50 on A-Raf kinase was more than 1000 nM; on B-Raf kinase it was not above 100 nM; in the assay with H2405 cells, 100 to 500 nM.

With `CC(=O)Nc1cc(-c2cc(-c3cc(NC(=O)NCCC(C)(C)C#N)c(F)cc3C)cc(C3CC3)n2)ccn1` [Example 59], the IC50 at A-Raf kinase is 100 to 500 nM; at B-Raf kinase it was not above 100 nM.

On to `CC(=O)Nc1cc(-c2cc(-c3cc(NC(=O)NCCC4(C)CC4)c(F)cc3C)cc(C3CC3)n2)ccn1` [Example 51], for which the results for the IC50 at A-Raf kinase and on B-Raf kinase were more than 1000 nM and not above 100 nM, respectively.

As for `CC(=O)Nc1cc(-c2cc(-c3cc(NC(=O)N[C@H]4C[C@](C)(F)C4)ccc3C)cc(OCCO)n2)ccn1` [Example 49], the IC50 was 100 to 500 nM at A-Raf kinase, not above 100 nM on B-Raf kinase and 100 to 500 nM with H2405 cells.

Consider `CNC(=O)c1cc(-c2cnnc(-c3cc(NC(=O)N4CC[C@@H](OC)C4)ccc3C)c2)ccn1` [Example 181], for which the half-maximal inhibitory concentration (IC50) at A-Raf kinase is more than 1000 nM; on B-Raf kinase, more than 1000 nM; with H2405 cells, 1000 to 10000 nM.

Consider `CC(=O)Nc1cc(-c2cc(-c3cc(NC(=O)Nc4ccc(C(F)(F)F)cc4)cnc3C)ccn2)ccn1` [Example 48], for which the IC50 at A-Raf kinase is more than 1000 nM; on B-Raf kinase it was not above 100 nM.

As to `COC(=O)Nc1cc(-c2nccc(-c3cc(NC(=O)N4CCC(C(F)(F)F)C4)ccc3C)n2)ccn1` (centres unmarked) [Example 193], the IC50 at A-Raf kinase was more than 1000 nM; at B-Raf kinase it was not above 100 nM; in the assay with H2405 cells, 1000 to 10000 nM.

Take `CNC(=O)c1cc(-c2cnnc(-c3cc(NC(=O)N4CCC(C(C)(C)C)C4)cnc3C)c2)ccn1` (centres unmarked) [Example 184]: the concentration for half-maximal inhibition (IC50) at A-Raf kinase was more than 1000 nM; at B-Raf kinase, more than 1000 nM; with H2405 cells, 1000 to 10000 nM.

As to `CC(=O)Nc1cc(-c2cc(-c3cc(NC(=O)NCCC4(C(F)(F)F)CC4)c(F)cc3C)cc(C3CC3)n2)ccn1` [Example 54], the IC50 on A-Raf kinase is more than 1000 nM; on B-Raf kinase it was not above 100 nM.

For the compound `Cc1ccc(NC(=O)NCCC(C)(C)C)cc1-c1ccnc(N2CCOCC2)c1` [Example 18], the IC50 at A-Raf kinase was more than 1000 nM; at B-Raf kinase, not above 100 nM.

As to `CNC(=O)c1cc(-c2cc(-c3cc(NC(=O)NC4CCCCC4)c(F)cc3C)cc(OCCO)n2)ccn1` [Example 205], the IC50 at A-Raf kinase was more than 1000 nM; on B-Raf kinase, not above 100 nM.

In the case of `CC(=O)Nc1cc(-c2cc(-c3cc(NC(=O)NCCC4(C)CC4)c(F)cc3C)cc(C)n2)ccn1` [Example 55], the results for the IC50 at A-Raf kinase and at B-Raf kinase were 100 to 500 nM and not above 100 nM, respectively.

For the compound `CNC(=O)c1cc(-c2cc(-c3cc(NC(=O)Nc4ccnc(C(C)(C)C#N)c4)ccc3C)ccn2)ccn1` [Example 69], the IC50 at A-Raf kinase was more than 1000 nM; on B-Raf kinase, not above 100 nM; with H2405 cells, 1000 to 10000 nM.

Consider `COC(C)(C)CCNC(=O)Nc1ccc(C)c(-c2cc(-c3cnn(C)c3)nc(N3CCOCC3)c2)c1` [Example 38], for which the IC50 on A-Raf kinase was more than 1000 nM; on B-Raf kinase, not above 100 nM.

With `CC(=O)Nc1cc(-c2cc(-c3cc(NC(=O)NC4CCCCC4)c(F)cc3C)cc(OCCO)n2)ccn1` [Example 53], the IC50 is 100 to 500 nM at A-Raf kinase and not above 100 nM on B-Raf kinase.

As to `COC(C)(C)CCNC(=O)Nc1cc(-c2cnnc(-c3ccnc(NC(=O)C4CC4)c3)c2)c(C)cc1F` [Example 173], the IC50 was more than 1000 nM on A-Raf kinase, not above 100 nM on B-Raf kinase and 100 to 500 nM in the assay on H2405 cells.

On to `CNC(=O)c1cc(-c2cnnc(-c3cc(NC(=O)N4CC[C@@H](OC(F)(F)F)C4)ccc3C)c2)ccn1` [Example 182], for which the IC50 is more than 1000 nM at A-Raf kinase, 500 to 1000 nM at B-Raf kinase and 1000 to 10000 nM with H2405 cells.

In the case of `Cc1ccc(NC(=O)N[C@H]2C[C@](C)(F)C2)cc1-c1cc(OCCO)nc(-c2ccnc(NC(=O)CN(C)C)c2)c1` [Example 50], the half-inhibitory concentration (IC50) at A-Raf kinase was more than 1000 nM; at B-Raf kinase, not above 100 nM.

As to `CC(=O)Nc1cc(-c2cc(-c3cc(NC(=O)NCCC4(C)CC4)ccc3C)cc(N3CCOCC3)n2)ccn1` [Example 57], the IC50 at A-Raf kinase is 500 to 1000 nM; on B-Raf kinase, not above 100 nM.

On to `Cc1ccc(NC(=O)N[C@H]2C[C@](C)(F)C2)cc1-c1cc(-c2ccnc(NC(=O)C3CC3)c2)nc(C2CC2)c1` [Example 61], for which the IC50 at A-Raf kinase was more than 1000 nM; at B-Raf kinase, not above 100 nM.

For the compound `CC(=O)Nc1cc(-c2cc(-c3cc(NC(=O)NC4CCC(F)(F)CC4)c(F)cc3C)cc(OCCO)n2)ccn1` [Example 63], the IC50 is 500 to 1000 nM at A-Raf kinase and not above 100 nM at B-Raf kinase.

Consider `CNC(=O)c1cc(-c2cnnc(-c3cc(NC(=O)N4CCC(C(C)(C)C)C4)ccc3C)c2)ccn1` (centres unmarked) [Example 180], for which the IC50 at A-Raf kinase is more than 1000 nM; at B-Raf kinase, 500 to 1000 nM; with H2405 cells, 1000 to 10000 nM.

As to `Cc1ccc(NC(=O)Nc2ccnc(C(C)(C)C#N)c2)cc1-c1ccnc(-c2ccnc(C(=O)NC3CC3)c2)c1` [Example 68], the 50% inhibitory concentration (IC50) on A-Raf kinase was more than 1000 nM; on B-Raf kinase, not above 100 nM.

For the compound `Cc1ccc(NC(=O)Nc2cn(C)nc2C(F)(F)F)cc1-c1cc(OCCO)nc(N2CCOCC2)c1` [Example 42], the IC50 at A-Raf kinase is more than 1000 nM; on B-Raf kinase, more than 1000 nM; in the assay with H2405 cells it was 1000 to 10000 nM.
